Patent US6465221B1, “Method of producing a taxane-type diterpene” (Mitsui Chemicals, Inc., priority 1994, dated 2002)

Tests used:
[1] = test system: cultured cells of Taxus media; conditions: α-linolenic acid, concentration not given, 14 days
Experimental: Two grams (fresh weight) of the cultured cells thus obtained by liquid culture was inoculated to 20 ml of liquid Woody Plant Medium (contained in an Erlenmeyer flask of 100 ml) to which α-linolenic acid of 0.01-1000 μM (dissolved in ethanol) was added, and shake culture was carried out at 25° C. in a dark place with a rotary shaker (amplification of 25 mm, 100 rpm).
After completing the culture for 14 days, cultured cells were harvested by filtration and lyophilized, then the dry weight was measured to obtain the yield thereof. Taxane-type diterpenes were extracted from the dried callus and the culture medium with methanol or the like, and they were determined by comparing with standard taxol using high performance liquid chromatography to measure the yield of taxol.

[2] = test system: cultured cells of Taxus baccata LINN; test: Taxus baccata cell culture with fatty acids or natural oil; type: cell-based; conditions: 14 days
Experimental: One gram (fresh weight) of the callus was inoculated to an Erlenmeyer flask containing 20 ml of liquid Woody Plant Medium and shake culture was carried out with a rotary shaker (amplification of 25 mm, 100 rpm) and the callus was subcultured in every 21 days to accelerate the growth rate thereof.

[3] = concentration of α-linolenic acid 0.01 μM
[4] = concentration of α-linolenic acid 0.1 μM
[5] = concentration of α-linolenic acid 1 μM
[6] = concentration of α-linolenic acid 10 μM
[7] = concentration of α-linolenic acid 100 μM
[8] = concentration of α-linolenic acid 500 μM
[9] = concentration of α-linolenic acid 1000 μM

## CC/C=C\C/C=C\C/C=C\CCCCCCCC(=O)O [Example 26, α-linolenic acid]
[1]
  yield of cells: 20 g/L
  yield of taxane-type diterpenes, baccatin III: 10 mg/L
  yield of taxane-type diterpenes, cephalomannine: 2 mg/L
  yield of taxane-type diterpenes, taxol: 22 mg/L
[2]; [3]
  yield of cells: 20 g/L
  yield of taxane-type diterpenes, baccatin III: 2 mg/L
  yield of taxane-type diterpenes, cephalomannine: 2 mg/L
  yield of taxane-type diterpenes, taxol: 5 mg/L
[2]; [4]
  yield of cells: 20 g/L
  yield of taxane-type diterpenes, baccatin III: 2 mg/L
  yield of taxane-type diterpenes, cephalomannine: 2 mg/L
  yield of taxane-type diterpenes, taxol: 6 mg/L
[2]; [5]
  yield of cells: 20 g/L
  yield of taxane-type diterpenes, baccatin III: 2 mg/L
  yield of taxane-type diterpenes, cephalomannine: 2 mg/L
  yield of taxane-type diterpenes, taxol: 6 mg/L
[2]; [6]
  yield of cells: 20 g/L
  yield of taxane-type diterpenes, baccatin III: 3 mg/L
  yield of taxane-type diterpenes, cephalomannine: 4 mg/L
  yield of taxane-type diterpenes, taxol: 8 mg/L
[2]; [7]
  yield of cells: 19 g/L
  yield of taxane-type diterpenes, baccatin III: 6 mg/L
  yield of taxane-type diterpenes, cephalomannine: 4 mg/L
  yield of taxane-type diterpenes, taxol: 19 mg/L
[2]; [8]
  yield of cells: 14 g/L
  yield of taxane-type diterpenes, baccatin III: 4 mg/L
  yield of taxane-type diterpenes, cephalomannine: 3 mg/L
  yield of taxane-type diterpenes, taxol: 12 mg/L
[2]; [9]
  yield of cells: 12 g/L
  yield of taxane-type diterpenes, baccatin III: 2 mg/L
  yield of taxane-type diterpenes, cephalomannine: 2 mg/L
  yield of taxane-type diterpenes, taxol: 7 mg/L
